Test results from patent US5693677A, “Ceramide 3 derivatives based on monounsaturated fatty acids” (Gist-brocades N.V., priority 1994, dated 1997).
In brackets after ≈: the same amount, converted by molar mass.

Legend:
[1] = Thermo-gravimetric analysis (TG/DTA) of ceramides, oxidation stability; format: physicochemical; details: 5° C./min; for Stability in thermo-gravimetric analysis: 25° to 180° C., oxygen (100 ml/min), in words
Procedure: Thermo-gravimetry (TG) and Differential Thermo-gravimetric Analysis (DTA) were carried out using the SSC 5200 system of Seiko, provided with the TG/DTA furnaces. Standard procedures were used to obtain the desired data.
Atmosphere oxygen (100 ml/min)
Reference empty, open Pt pan
Sample size ± 5 mg powder
Sample container open Pt pan

[2] = Solubility of ceramide 3 derivatives in emollients (visual inspection, maximum concentration before cloudiness); format: physicochemical; details: for solubility: organic solvent or mixture
Procedure: The compound produced in Example 1, N-oleoyl phytosphingosine (also called Ceramide IIIB) was tested by solubilisation in isocetyl alcohol (Eutanol™ G16, Henkel), isostearic acid (Emersol, Henkel), triglycerides (Myritolo 318, J. Dekker), wallnut oil (J. Dekker) and avocado oil (J. Dekker).
Increasing amounts of the compound were added to the solvent and stirred under nitrogen for 30 minutes at 45° C. After cooling to room temperature (22° C.±2° C.) the solutions were kept in the dark. After 1, 24 and 48 hours the solutions were visually inspected. The maximum concentration was determined before the solution turned cloudy, indicating the presence of insoluble crystals.
The solubility of a saturated ceramide 3 derivative, N-stearoylphytosphingosine, was also determined.

[3] = tested on: SDS-damaged skin; assay: Effects of ceramide IIIB formulations on SDS-damaged skin, skin humidity (corneometry); format: in vivo, human (female volunteers); details: skin pretreated with a surfactant (SDS), topical
Procedure: The corneometer CM 820 PC (Courage and Khazaka, Cologne, Germany) registers the electrical capacitance of the skin surface, which is a measure of the degree of moisture on the skin's surface. The capacitance is expressed digitally in arbitrary units (a.u.). Three measurements were performed on each test area and the mean was used to define hydration state of the stratum corneum.
(§1) after damaging the skin with SDS
(§2) 1 hour after last application on days 3, 7, 14
(§3) Five female volunteers at the age of 22-43 years with healthy skin were included in the test.
(§4) Measurements were carried out at a temperature of 22°±1° C. and a relative humidity of 60±10%. Subjects were accustomed to ambient conditions for 20 min prior to any measurement. The test was carried out on the volar forearms. The skin of the forearms was treated with a 5% aqueous solution of sodium lauryl sulphate (SDS) and an occlusive dressing applied. The dressing was removed 2 h later, and the regions gently washed with water and air-dried. After 30 min the measurements were done. Then the three test products were applied, one area remained untreated. The dose of application was about 2 mg/cm^2. In the following 14 days a home application in the morning and evening took place.
Measurements were evaluated during the treatment period on day 3, 7 and 14 one hour after the last daily application. […]

[4] = tested on: skin (SDS-challenge); assay: Protective effects of ceramide IIIB formulations against SDS-challenge, TEWL; format: in vivo, human (female volunteers); details: pretreatment, in words (TEWL and skin colour)
Procedure: (§5) Measurements of trans-epidermal water loss (TEWL) were performed with the Tewameter (Courage & Khazaka, Cologne, Germany). The Tewameter is a device for measurement of water evaporation on skin surfaces based on the diffusion principle discovered by A. Fick in 1885.
before start of treatment;
two hours after last application on day 7;
2 hours after irritation with SDS (2 h under occlusion).
Two panels of each five female volunteers at the age of 19-55 years with healthy skin were included in the test.
Measurements were carried out at a temperature of 22°±1° C. and a relative humidity of 60±10%. Subjects were accustomed to ambient conditions for 20 min prior to any measurement. The test was carried out on the volar forearms. Initially untreated skin was measured in all four areas to find baseline values. Then the three test products were applied, one area remained untreated. The dose of application was about 2 mg/cm^2. In the following 7 days a home application in the morning and evening took place. Measurements were evaluated during the treatment period on day 7 two hours after the last daily application. […]
The results of TEWL and skin colour measurements are presented in respectively FIGS. 5 and 6. Values are expressed as (Valueday7 -Valueday0)/Valueday0 ×100%.

[5] = tested on: SDS-damaged skin; assay: Effects of ceramide IIIB formulations on SDS-damaged skin, trans-epidermal water loss (TEWL); format: in vivo, human (female volunteers); details: 0.2 and 0.5% Ceramide IIIB
Procedure: as §5, §1, §2, §3, §4
Measurements were evaluated during the treatment period on day 3, 7 and 14 one hour after the last daily application. Use of other cosmetic products was restricted on the test areas throughout the whole study.

Structure (SMILES)	Stability in thermo-gravimetric analysis [1]	solubility ([2]; avocado oil)	solubility ([2]; emersol (isostearic acid))	solubility ([2]; eutanol g16 (isocetyl alcohol))	solubility ([2]; myritol 318 (triglycerides))	solubility ([2]; wallnut oil)	Recovery of diminished water-retaining properties of skin [3]	Protection from SDS-induced skin damage [4]	TEWL dose-response [5]	Solubility compared with saturated analogue ([2]; emollients, in words)	Temperature at which weight increase (oxidation) followed by decomposition starts ([1]; oxygen)
CCCCCCCCCCCCCCCCCC(=O)N[C@@H](CO)[C@H](O)[C@H](O)CCCCCCCCCCCCCC [Ceramide III, N-stearoylphytosphingosine, reference compound]	most stable compound as is illustrated by the absence of change of weight	50 µg/mL (≈ 85.6 µM)	600 µg/mL (≈ 1030 µM)	1600 µg/mL (≈ 2740 µM)	50 µg/mL (≈ 85.6 µM)	50 µg/mL (≈ 85.6 µM)					
CCCCCCCC/C=C\CCCCCCCC(=O)N[C@@H](CO)[C@H](O)[C@H](O)CCCCCCCCCCCCCC [Ceramide IIIB, N-oleoylphytosphingosine]	behaviour similar to ceramide 3, although showing a steadily increasing baseline, probably due to hydration. However, no sudden increase in weight followed by decomposition is observed	< 200 µg/mL	8000 µg/mL (≈ 13700 µM)	12000 µg/mL (≈ 20600 µM)	800 µg/mL (≈ 1370 µM)	200 µg/mL (≈ 344 µM)	high capacity for recovering diminished water-retaining properties of the skin	protects the skin from SDS-induced damage	a clear dose-response effect	solubilizes much better than its saturated analogue	
CCCCC/C=C\C/C=C\CCCCCCCC(=O)N[C@@H](CO)[C@H](O)[C@H](O)CCCCCCCCCCCCCC [sample IIIA, N-linoleoylphytosphingosine]	increase in weight (oxidation) followed by decomposition										ca. 80 °C
